Data on two compounds can be found in patent US20220397567A1, “NOVEL APPROACH FOR INCREASING CONTRACTILITY IN PATIENTS WITH SYSTOLIC HEART FAILURE” (THE TRUSTEES OF COLUMBIA UNIVERSITY IN THE CITY OF NEW YORK, priority 2019, published 2022).

SMILES strings stand for the structures. Several values for one entry are separate records, joined by “and”; a condition that tells them apart may be missing. Equal entries are not always repeated. Entries after “also recorded” stand apart in the source; their conditions may differ.

The test system of assay [1] is CaV1.2 (α1C+β2B) channels in HEK293T cells. As to the kind of experiment: Perforated whole-cell patch clamp of Ba2+ current, forskolin stimulation of CaV1.2 reconstituted in HEK293T cells. In kind it is cell-based, rabbit α1C, human β2B, mouse Rad. An excerpt:
The robust heterologous reconstitution of PKA regulation of L-type Ca^2+ currents has been long pursued as a crucial step. […] To preserve the normal intracellular milieu and signaling cascades, the inventors used perforated, whole-cell patch clamp to assess function. The inventors used Ba^2+ as the charge carrier to minimize inactivation and depolarized the membrane potential with either a voltage step to 0 mV or a voltage ramp from −60 mV to +60 mV.
In the above, with regard to clone construction and cell culture, all mouse N-terminal-GFP-tagged mouse Rad (accession #XM_006531206) constructs in a pEGFP-C1 vector were generated by gene-synthesis (Gene Universal). The human CaV2.2 (pSAD442-1) was a gift from Diane Lipscombe (Addgene plasmid #62574). HEK293T cells were cultured in DMEM with 10% FBS, 1% Pen/Strep, and transfected with 3 μg rabbit α1C (accession #X15539) or α1B (for CaV2.2 experiments), 3 μg human β2B (NM-201590.3) and 0.5 μg N-terminal-GFP-tagged mouse Rad using Lipofectamine 2000 (Thermo Fisher Scientific). The media was changed 4-6 hours after transfection. The cells were split onto coverslips coated with attachment factor protein (Gibco). Electrophysiological recordings were carried out at room temperature 24-48 hours after transfection.
For HEK293T cell experiments involving the forskolin-induced stimulation of CaV1.2 and CaV2.2 currents, perforated whole-cell patch clamp technique was implemented to minimize current run-down and preserve the intracellular milieu. Amphotericin B (Sigma A9528) was initially dissolved in DMSO (20 mg/ml) and used in the pipette solution at a final concentration of 200 μg/ml. The tip of the pipette was filled with amphotericin-free solution (in mM): 80 Cesium Gluconate, 40 CsCI, 10 HEPES, 10 BAPTA, 1 MgCl2, 1 Mg-ATP, pH adjusted to 7.2 with CsOH. The pipette was backfilled with (in mM): 125 CsCI, 10 HEPES, 4 CaCl2, 1 MgCl2, pH-7.2 with CsOH; containing amphotericin, 200 μg/ml. CaCl2 (4 mM) was added to the intracellular patch electrode solution to enable the detection of conversion from perforated to ruptured configuration. The external solution contained (in mM): 130 tetraethylammonium methanesulfonate, 10 HEPES, 1 MgCl2, 10 (with Rad expression) or 2 (without Rad expression) BaCI2, 5 Glucose, pH adjusted to pH 7.4 with CsOH. For experiments with HEK293T cells, in addition to step protocols, we used a ramp protocol with a 200 ms voltage ramp from −60 mV (or −70 mV for CaV1.3) to +60 mV applied every 10 s- to monitor the near-steady-state I-V relationship. All experiments were performed at room temperature, 22±1° C. Cells were selected based on co-transfection of a vector containing GFP in the absence of Rad, and GFP-conjugated Rad for the experiments with Rad transfected. For both cardiomyocytes and HEK293 cells, cells without a stable baseline (potentially due to run-down or run-up) were not studied.
The voltage steps protocol used in cardiomyocytes studies evaluated IIpeak=Ipeak (V), which was recalculated in […] to G=G(V) as G=I/(V−Erev). For HEK cells experiments, the inventors used a ramp protocol (FIG. 17B). The experimental records were I=I(t), where t=time. The inventors transformed these records to I=I(V), which were then further transformed to G=G(V) in […] (FIG. 17B).

Assay [2] relates to CaV1.3 (α1D+β2B) channels in HEK293T cells. As to the kind of experiment: Perforated whole-cell patch clamp of Ba2+ current, forskolin stimulation of CaV1.3 in HEK293T cells. To be noted: cells expressing α1D+β2B+Rad. It is filed as cell-based. On the procedure: In adrenal chromaffin cells and the sinus node cells of the heart, L-type CaV1.3 channels are robustly stimulated by PKA. […] Thus, like CaV1.2, Rad is the missing ingredient. For HEK293T cell experiments involving the forskolin-induced stimulation of CaV1.2 and CaV2.2 currents, perforated whole-cell patch clamp technique was implemented to minimize current run-down and preserve the intracellular milieu. Amphotericin B (Sigma A9528) was initially dissolved in DMSO (20 mg/ml) and used in the pipette solution at a final concentration of 200 μg/ml. The tip of the pipette was filled with amphotericin-free solution (in mM): 80 Cesium Gluconate, 40 CsCI, 10 HEPES, 10 BAPTA, 1 MgCl2, 1 Mg-ATP, pH adjusted to 7.2 with CsOH. The pipette was backfilled with (in mM): 125 CsCI, 10 HEPES, 4 CaCl2, 1 MgCl2, pH-7.2 with CsOH; containing amphotericin, 200 μg/ml. CaCl2 (4 mM) was added to the intracellular patch electrode solution to enable the detection of conversion from perforated to ruptured configuration. […] For experiments with HEK293T cells, in addition to step protocols, we used a ramp protocol with a 200 ms voltage ramp from -60 mV (or -70 mV for CaV1.3) to +60 mV applied every 10 s- to monitor the near-steady-state I-V relationship. All experiments were performed at room temperature, 22±1° C. Cells were selected based on co-transfection of a vector containing GFP in the absence of Rad, and GFP-conjugated Rad for the experiments with Rad transfected. For both cardiomyocytes and HEK293 cells, cells without a stable baseline (potentially due to run-down or run-up) were not studied. The voltage steps protocol used in cardiomyocytes studies evaluated […]), which was recalculated in […] to G=G(V) as […]). For HEK cells experiments, the inventors used a ramp protocol (FIG. 17B). The experimental records were I=I(t), where t=time. The inventors transformed these records to I=I(V), which were then further transformed to G=G(V) in […]). The parameters of voltage-dependent activation were obtained using a modified Boltzmann distribution. […]

Assay [3] deals with CaV2.2 (α1B+β2B) channels in HEK cells. In words: Perforated whole-cell patch clamp of Ba2+ current, forskolin stimulation of CaV2.2 in HEK cells. In kind it is cell-based, human. An excerpt:
N-type Ca^2+ channels (CaV2.2) are widely expressed, play an essential role in neurotransmitter release, and are targets for the development of drugs to relieve chronic pain. The inventors expressed the CaV2.2 α1B subunit with β2B and Rad in HEK cells. […] Attenuating binding of Rad […] prevented the forskolin-induced modulation of CaV2.2 current (FIG. 19F). In the above, with regard to clone construction and cell culture, all mouse N-terminal-GFP-tagged mouse Rad (accession #XM_006531206) constructs in a pEGFP-C1 vector were generated by gene-synthesis (Gene Universal). The human CaV2.2 (pSAD442-1) was a gift from Diane Lipscombe (Addgene plasmid #62574). […] The media was changed 4-6 hours after transfection. The cells were split onto coverslips coated with attachment factor protein (Gibco). Electrophysiological recordings were carried out at room temperature 24-48 hours after transfection. For HEK293T cell experiments involving the forskolin-induced stimulation of CaV1.2 and CaV2.2 currents, perforated whole-cell patch clamp technique was implemented to minimize current run-down and preserve the intracellular milieu. Amphotericin B (Sigma A9528) was initially dissolved in DMSO (20 mg/ml) and used in the pipette solution at a final concentration of 200 μg/ml. The tip of the pipette was filled with amphotericin-free solution (in mM): 80 Cesium Gluconate, 40 CsCI, 10 HEPES, 10 BAPTA, 1 MgCl2, 1 Mg-ATP, pH adjusted to 7.2 with CsOH. The pipette was backfilled with (in mM): 125 CsCI, 10 HEPES, 4 CaCl2, 1 MgCl2, pH-7.2 with CsOH; containing amphotericin, 200 μg/ml. CaCl2 (4 mM) was added to the intracellular patch electrode solution to enable the detection of conversion from perforated to ruptured configuration. […] For experiments with HEK293T cells, in addition to step protocols, we used a ramp protocol with a 200 ms voltage ramp from -60 mV (or -70 mV for CaV1.3) to +60 mV applied every 10 s- to monitor the near-steady-state I-V relationship. All experiments were performed at room temperature, 22±1° C. Cells were selected based on co-transfection of a vector containing GFP in the absence of Rad, and GFP-conjugated Rad for the experiments with Rad transfected. For both cardiomyocytes and HEK293 cells, cells without a stable baseline (potentially due to run-down or run-up) were not studied. The voltage steps protocol used in cardiomyocytes studies evaluated […]), which was recalculated in […] to G=G(V) as […]). For HEK cells experiments, the inventors used a ramp protocol (FIG. 17B). The experimental records were I=I(t), where t=time. The inventors transformed these records to I=I(V), which were then further transformed to G=G(V) in […]). The parameters of voltage-dependent activation were obtained using a modified Boltzmann distribution. […]

For assay [4], the system named is CaV1.2 channels in cardiomyocytes. In words: Whole-cell patch clamp of nisoldipine-insensitive Ca2+ current in cardiomyocytes of transgenic mice. In kind it is cell-based, mouse.
Excerpt: With regard to the isolation of adult cardiac myocytes, mice ventricular myocytes were isolated by enzymatic digestion using a Langendorff perfusion apparatus. Cardiomyocytes were isolated from 8-12 week-old non-transgenic and transgenic mice.
With regard to whole cell patch clamp electrophysiology, isolated cardiomyocytes or HEK cells on glass 8×8 mm coverslips were placed in Bioptechs Delta T Dishes filled with solution containing (in mM): 112 NaCl, 5.4 KCl, 1.7 NaH2PO4. 1.6 MgCl2, 20.4 HEPES (pH 7.2), 30 Taurine, 2 DL-Carnitine, 10.3 Creatine, 5.4 Glucose. The petri dishes were mounted on the stage of an inverted microscope and served as a perfusion chamber. After establishing a seal and achieving whole-cell configuration, external solutions were changed by fast local perfusion method.
For cardiomyocytes, pipette resistance was between 1-3 ma Membrane currents were measured by conventional (ruptured) whole-cell patch-clamp method using a MultiClamp 700B or Axopath200B amplifier and pCLAMP 10.7 software (Molecular Devices). Capacitance transients and series resistance were compensated. Voltage was corrected for liquid junction potential (−10 mV) during analysis. Leak currents were subtracted by a P/4 protocol. […]
Assay [5] has as its system CaV1.2 neighbourhood proteins (Rad, PKA catalytic subunit, Sorbs2). As to the kind of experiment: APEX2 proximity labeling with TMT SPS MS3 in isolated cardiomyocytes, isoproterenol vs. no isoproterenol. It is filed as cell-based, mouse. To be noted: for decrease in Rad (proximity labeling, iso vs. no iso) / increase in PKA catalytic subunit (proximity labeling, iso vs. no iso): 1 μM isoproterenol, 10 minutes.
Description: Thus, proximity-labeling in cardiomyocytes treated with isoproterenol was compared to untreated controls. Cardiomyocytes were enzymatically isolated from two α1C-APEX2 mice, mixed, loaded with biotin-phenol and exposed to isoproterenol or vehicle for 10 minutes at room temperature. For the final minute, labeling was initiated with H2O2. This was repeated for myocytes from 4 additional sets of mice (total: 5 sets of biological replicates; 10 mice). Biotinylated proteins were purified and detected using TMT SPS MS^3. The isobaric labeling allowed simultaneous quantification of all proteins measured rather than just a select subset, thus enabling statistical analysis of relative enrichment between vehicle and isoproterenol treatment. Candidates in the upper left quadrant have reduced labeling (likely indicating reduced proximity) after isoproterenol and candidates in the upper right quadrant have increased labeling (likely indicating increased proximity) after isoproterenol. Mitochondrial/nuclear proteins were removed from the analysis.
For the proximity labeling, isolated ventricular cardiomyocytes were incubated in labeling solution with 0.5 μM biotin-phenol (Iris-biotech) for 30 minutes. During the final 10 minutes of labeling, 1 μM isoproterenol (Sigma 15627) was added. To initiate labeling, H2O2 (Sigma H1009) was added to a final concentration of 1 mM for 1 min Exactly 1 minute after H2O2 treatment, the cells were washed three times with cold quenching solution containing (in mM) 10 Sodium ascorbate (VWR 95035-692), 5 Trolox (Sigma 238813), and 10 Sodium azide (Sigma S2002). After the cells were harvested by centrifugation, the quenching solution was aspirated and the pellet was flash-frozen and stored at −80° C. until streptavidin pull-down.
With regard to the processing of biotinylated proteins for mass spectrometry, proteins were precipitated with Trichloroacetic acid (TCA; Sigma T9159) and then centrifuged at 21,130×g at 4° C. for 10 minutes. The pellet was washed with −20° C. cold acetone (Sigma 650501), vortexed, and centrifuged at 21,130×g at 4° C. for 10 minutes. Following centrifugation, acetone was aspirated and the pellet was acetone-washed again three more times.

For assay [6], the system named is Rad in CaV1.2 neighbourhood. As to the kind of experiment: APEX2 proximity labeling with TMT mass spectrometry in Langendorff-perfused α1C-APEX2 hearts. On the set-up: species or system mouse. Conditions: Langendorff-perfused α1C-APEX2 whole hearts; 1 μM isoproterenol, 5 minutes.
Description: The inventors also probed the impact of isoproterenol on the CaV1.2 proteome signature in Langendorff-perfused whole hearts (FIG. 9B), tracking 2,610 proteins from 10 hearts in parallel (FIG. 6K, FIG. 15C and FIG. 16A). The inventors monitored phospholamban phosphorylation to confirm that the β-adrenergic signaling pathway in cardiomyocytes is preserved in the presence of biotin-phenol and H2O2 (FIG. 14C and FIG. 14D).
For biotinylation in Langendorff-perfused hearts, mice were injected with 5 mg/kg propranolol-HCl (Sigma PHR1308) to suppress adrenergic stimulation during the isoflurane anesthesia and cardiectomy. Hearts were retrograde perfused with Krebs' solution for 10 minutes prior to addition of biotin-phenol for 15 minutes. During the final 5 minutes, 1 μM Isoproterenol (Sigma 1351005) or vehicle was added to the perfusate. The hearts were then perfused with 1 mM H2O2 for 1 minute, followed by 3-minutes of perfusion of quenching solution. Electrocardiograms were monitored throughout the experiment to ensure viability of the preparation and an isoproterenol-induced increase in heart rate. […]
The subject of a further assay is Rad. In words: Whole cell proteomics (TMT SPS MS3) of non-transgenic cardiomyocytes, isoproterenol vs. no isoproterenol. It is filed as cell-based, mouse. To be noted: non-transgenic (NTG) mice cardiomyocytes; 10-minute isoproterenol.
Assay [7] concerns CFP-tagged Rad localization in cardiomyocytes. In words: Confocal fluorescence of CFP-Rad at membrane and in cytosol of cardiomyocytes before and after isoproterenol. In kind it is cell-based. To be noted: CFP-Rad adenovirus-infected rat cardiomyocytes; 5 minutes after superfusion. The source says: Mass spectrometry identified phosphorylated proteins from biotinylated, streptavidin-purified samples from APEX2 mice, and from whole hearts of wild-type (WT) mice treated with isoproterenol. […] Rad, a member of the RGK family of GTP-binding proteins, is an inhibitor of voltage-gated Ca^2+ channels and is also a PKA target. […] To further explore whether β-agonists can alter membrane-localization of Rad relative, rat cardiomyocytes were infected with adenoviruses harboring cyan fluorescent protein (CFP)-tagged Rad. The fluorescence of CFP-Rad at the membrane and in the cytosol was quantified before and after isoproterenol. The number of exposures were limited to avoid photo-bleaching.

[8] abbreviates: HEK cells expressing 35-mutant α1C+28-mutant β2B+Rad.
[9] abbreviates: cells expressing α1C+β2B+Rad, forskolin vs. no forskolin.
Setting [10] is: CaV2.2 α1B+β2B co-expressed with Rad.
Where [11] appears, read: CaV2.2 α1B+β2B co-expressed with Rem.

With `C=C[C@@]1(C)CC(=O)[C@]2(O)[C@@]3(C)[C@@H](O)CCC(C)(C)[C@@H]3[C@H](O)[C@H](OC(C)=O)[C@@]2(C)O1` [forskolin], the “increase of Gmax, as much as” value is at most 3.1 fold in assay [1] (setting [8]) and at most 2.3 fold in assay [2]. Further, the “increase of Gmax, mean” value in assay [1] (setting [8]) was 1.9 fold; in assay [1] (cells expressing 9*-α1C, β2B and Rad), 1.6 fold; in assay [2] it was 1.9 fold; in assay [3] (setting [10]), 2.2 fold; in assay [4] (9* exon-containing CaV1.2 channels) it was 1.4 fold. For the same compound, the “shift of V50 for activation” value in assay [1] (setting [8]) is recorded as −3.3 mV; in assay [1] (cells expressing α1C+β2B+Rad), −5 mV; in assay [2], −4.3 mV; in assay [3] (setting [10]), −3.7 mV; in assay [3] (setting [11]), −4.2 mV. Further, the “increase of maximal conductance (Gmax), as much as” value in assay [1] (setting [9]) is at most 4.5 fold. The “increase of maximal conductance (Gmax), mean” value in assay [1] (setting [9]) is 1.5 fold and 1.6 fold. Further, the “increase of Gmax” value in assay [3] (setting [11]) worked out at 1.6 fold. The “increase of nisoldipine-insensitive maximal conductance (Gmax), mean” value in assay [4] (transgenic pWT α1C cardiomyocytes, 10 μM forskolin) came to 1.4 fold.

`CC(C)NCC(O)c1ccc(O)c(O)c1` (centres unmarked) [isoproterenol]: in assay [5] (α1C-APEX2 and β2B-APEX2 cardiomyocytes and α1C-APEX2 whole hearts), the “decrease in the amount of Rad, all three approaches” value is given as 30-50%. For the same compound, in assay [5] (α1C-APEX2 cardiomyocytes), the “decrease in Rad (proximity labeling, iso vs. no iso)” value is around 50% and the “increase in PKA catalytic subunit (proximity labeling, iso vs. no iso)” value is listed as 50%. Also, in assay [5] (α1C-APEX2 cardiomyocytes, isoproterenol 10 minutes), the “reduction in Sorbin and SH3 domain containing 2 (Sorbs2)” value is given as around 57%. Moreover, in assay [5] (β2B-APEX2 cardiomyocytes), the “decrease in Rad (proximity labeling, iso vs. no iso)” value came to 30% and the “increase in PKA catalytic subunit (proximity labeling, iso vs. no iso)” value is 68%. The “decrease in Rad (proximity labeling, iso vs. no iso)” value in assay [6] came out at 36%. Also, the “effect on the amount of Rad (whole-cell, not proximity labeled)” value with Rad is reported as “no significant effect; also recorded: unchanged”. Also, in assay [7], the “decrease of Rad localized at the membrane” value is 21%±3% and the “increase of cytosolic Rad” value is 20%±5%.
